Measured values as given in patent publication US20110213335A1, “HOLLOW MICRONEEDLE ARRAY AND METHOD” (priority 2008, published 2011).
Where a name gives a salt, the structure may show the parent alone.

Experiments:
[1] = oral administration; cited from earlier work
[2] = Naloxone infusion by hollow microneedle array with resulting PK profile (serum naloxone by LCMSMS); settings: female, pig, other: intradermal infusion by hollow microneedle device

Compound: C=CCN1CC[C@]23c4c5ccc(O)c4O[C@H]2C(=O)CC[C@@]3(O)[C@H]1C5 [naloxone, naloxone hydrochloride]
- bioavailability when administered orally [1]: about 2%
- bioavailability [2]: 107%
